Experimental data as given in ChEMBL document CHEMBL1201862, “PubChem BioAssay data set” (2004).
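Tested at 5 concentrations; 48 h exposure; 96-well plates; endpoints linearly interpolated, else capped at highest concentration. Here, GI50 denotes the concentration required for 50% inhibition of growth.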 Activity calls are given as the source filed them. Cut-off read from the data, not from the text of the source: active = GI50 up to about 1.1 µM and inactive = higher.

Key:
Assay in all cases: growth of human tumour cells (NCI), 48 h
KM-20L2 = test system: KM-20L2
SF-268 = test system: SF-268
TK-10 = test system: TK-10
HCT-15 = test system: HCT-15
LXFL 529 = test system: LXFL 529
HL-60 = test system: HL-60
SK-OV-3 = test system: SK-OV-3
SNB-78 = test system: SNB-78
U-251 = test system: U-251
K562 = test system: K562
UO-31 = test system: UO-31
COLO 205 = test system: COLO 205
HCT-116 = test system: HCT-116
A549 = test system: A549
A498 = test system: A498
EKVX = test system: EKVX
NCI-H23 = test system: NCI-H23
MOLT-4 = test system: MOLT-4
SN12C = test system: SN12C
OVCAR-8 = test system: OVCAR-8
SF-539 = test system: SF-539
SW-620 = test system: SW-620
RXF 393 = test system: RXF 393
SK-MEL-2 = test system: SK-MEL-2
ACHN = test system: ACHN
HOP-18 = test system: HOP-18
SK-MEL-28 = test system: SK-MEL-28
Malme-3M = test system: Malme-3M
IGROV-1 = test system: IGROV-1
SNB-75 = test system: SNB-75
M14 = test system: M14
DLD-1 = test system: DLD-1
786-0 = test system: 786-0
UACC-62 = test system: UACC-62
UACC-257 = test system: UACC-257
NCI-H522 = test system: NCI-H522
HOP-62 = test system: HOP-62
NCI-H460 = test system: NCI-H460
SF-295 = test system: SF-295
CCRF-CEM = test system: CCRF-CEM
OVCAR-4 = test system: OVCAR-4
CAKI-1 = test system: CAKI-1
HCC 2998 = test system: HCC 2998
KM12 = test system: KM12
SK-MEL-5 = test system: SK-MEL-5
DMS-273 = test system: DMS-273
OVCAR-3 = test system: OVCAR-3
RPMI-8226 = test system: RPMI-8226
SNB-19 = test system: SNB-19
M19-MEL = test system: M19-MEL
XF498 = test system: XF498
HOP-92 = test system: HOP-92
DMS-114 = test system: DMS-114
OVCAR-5 = test system: OVCAR-5
LOX IMVI = test system: LOX IMVI
NCI-H226 = test system: NCI-H226
SR = test system: SR
HT-29 = test system: HT-29

`N#Cc1ccc(C2SCc3nc4ccccc4n32)cc1` (centres undefined) was tested, and the GI50 (KM-20L2) was 52.7 µM (inactive), the GI50 (SF-268) was > 100 µM (inactive) and the GI50 (TK-10) was 81.7 µM (inactive). For the same molecule, the GI50 (HCT-15) was over 100 µM, the GI50 (LXFL 529) was 45.4 µM (inactive) and the GI50 (HL-60) was 31.3 µM (inactive). For the same molecule, the GI50 (SK-OV-3) was > 100 µM (inactive), the GI50 (SNB-78) was > 100 µM (inactive) and the GI50 (U-251) was > 100 µM (inactive). For the same molecule, the GI50 (K562) was 41.6 µM (inactive), the GI50 (UO-31) was 15.2 µM (inactive) and the GI50 (COLO 205) was > 100 µM (inactive). For the same molecule, the GI50 (HCT-116) was 44.8 µM (inactive), the GI50 (A549) was 81.8 µM (inactive) and the GI50 (A498) was 58.7 µM (inactive). For the same molecule, the GI50 (EKVX) was 69.3 µM (inactive), the GI50 (NCI-H23) was 25.6 µM (inactive) and the GI50 (MOLT-4) was 63.1 µM (inactive). For the same molecule, the GI50 (SN12C) was 75 µM (inactive), the GI50 (OVCAR-8) was 76.9 µM (inactive) and the GI50 (SF-539) was 84.7 µM (inactive). For the same molecule, the GI50 (SW-620) was > 100 µM (inactive), the GI50 (RXF 393) was 10.5 µM (inactive) and the GI50 (SK-MEL-2) was > 100 µM (inactive). For the same molecule, the GI50 (ACHN) was 63.8 µM (inactive), the GI50 (HOP-18) was 48.5 µM (inactive) and the GI50 (SK-MEL-28) was 42.4 µM (inactive). For the same molecule, the GI50 (Malme-3M) was > 100 µM (inactive), the GI50 (IGROV-1) was 79.4 µM (inactive) and the GI50 (SNB-75) was 38.5 µM (inactive). For the same molecule, the GI50 (M14) was 54.2 µM (inactive), the GI50 (DLD-1) was > 100 µM (inactive) and the GI50 (786-0) was > 100 µM (inactive). For the same molecule, the GI50 (UACC-62) was 50.7 µM (inactive), the GI50 (UACC-257) was > 100 µM (inactive) and the GI50 (NCI-H522) was 12.3 µM (inactive). For the same molecule, the GI50 (HOP-62) was 98.6 µM (inactive), the GI50 (NCI-H460) was > 100 µM (inactive) and the GI50 (SF-295) was 74.3 µM (inactive). For the same molecule, the GI50 (CCRF-CEM) was > 100 µM (inactive), the GI50 (OVCAR-4) was 83.2 µM (inactive) and the GI50 (CAKI-1) was > 100 µM (inactive). The GI50 (HCC 2998) was > 100 µM (inactive), the GI50 (KM12) was > 100 µM (inactive) and the GI50 (SK-MEL-5) was 32.7 µM (inactive). For the same molecule, the GI50 (DMS-273) was > 100 µM (inactive), the GI50 (OVCAR-3) was > 100 µM (inactive) and the GI50 (RPMI-8226) was 49.8 µM (inactive). The GI50 (SNB-19) was 81.7 µM (inactive), the GI50 (M19-MEL) was > 100 µM (inactive) and the GI50 (XF498) was > 100 µM (inactive).
With `CC(=O)/C(=C\c1ccccc1O)C(=O)Nc1ccccc1C` the GI50 (HOP-92) was 15.9 µM (inactive), the GI50 (DMS-114) was 24.3 µM (inactive) and the GI50 (SF-268) was 26 µM (inactive). For the same molecule, the GI50 (TK-10) was > 10 µM (inactive), the GI50 (HCT-15) was 14.1 µM and the GI50 (LXFL 529) was 22.3 µM (inactive). For the same molecule, the GI50 (HL-60) was 9.64 µM (inactive), the GI50 (OVCAR-5) was 21.2 µM (inactive) and the GI50 (SK-OV-3) was 51.9 µM (inactive). For the same molecule, the GI50 (SNB-78) was 23.4 µM (inactive), the GI50 (U-251) was 8.85 µM (inactive) and the GI50 (K562) was 4.06 µM (inactive). For the same molecule, the GI50 (UO-31) was 16 µM (inactive), the GI50 (HCT-116) was 24.4 µM (inactive) and the GI50 (A549) was 20.5 µM (inactive). The GI50 (EKVX) was 36 µM (inactive), the GI50 (NCI-H23) was 17.7 µM (inactive) and the GI50 (MOLT-4) was 9.84 µM (inactive). For the same molecule, the GI50 (SN12C) was > 10 µM (inactive), the GI50 (OVCAR-8) was 31.7 µM (inactive) and the GI50 (SF-539) was 18.5 µM (inactive). For the same molecule, the GI50 (SW-620) was 20.7 µM (inactive), the GI50 (RXF 393) was 19.1 µM (inactive) and the GI50 (SK-MEL-2) was 18.9 µM (inactive). The GI50 (ACHN) was 17.5 µM (inactive), the GI50 (LOX IMVI) was 14.3 µM (inactive) and the GI50 (HOP-18) was 40.2 µM (inactive). The GI50 (SK-MEL-28) was 24.3 µM (inactive), the GI50 (Malme-3M) was 17.5 µM (inactive) and the GI50 (IGROV-1) was 25.9 µM (inactive). The GI50 (M14) was 17.5 µM (inactive), the GI50 (DLD-1) was 20.1 µM (inactive) and the GI50 (786-0) was 15.4 µM (inactive). The GI50 (UACC-62) was 20 µM (inactive), the GI50 (UACC-257) was 31.9 µM (inactive) and the GI50 (NCI-H522) was > 10 µM (inactive). For the same molecule, the GI50 (HOP-62) was 20.9 µM (inactive), the GI50 (NCI-H460) was 23.7 µM (inactive) and the GI50 (SF-295) was 23.2 µM (inactive). The GI50 (CCRF-CEM) was 14.3 µM (inactive), the GI50 (NCI-H226) was 27.4 µM (inactive) and the GI50 (OVCAR-4) was 29.4 µM (inactive). The GI50 (CAKI-1) was 16 µM (inactive), the GI50 (HCC 2998) was 15.7 µM (inactive) and the GI50 (KM12) was 17.2 µM (inactive). The GI50 (SK-MEL-5) was 13.5 µM (inactive), the GI50 (SR) was 13.1 µM (inactive) and the GI50 (OVCAR-3) was 25.7 µM (inactive). The GI50 (RPMI-8226) was 15 µM (inactive), the GI50 (HT-29) was 16.9 µM (inactive) and the GI50 (SNB-19) was 20.7 µM (inactive). For the same molecule, the GI50 (M19-MEL) was 27.7 µM (inactive) and the GI50 (XF498) was 13.9 µM (inactive).
With `COC(=O)c1c2c(cc3c1CC1(Cc4cc5c(c(C(C)=O)c4C1)CCC5)C3)CCC2` (centres undefined) the GI50 (HOP-92) was 22.3 µM (inactive), the GI50 (DMS-114) was 61.5 µM (inactive) and the GI50 (SF-268) was 67.3 µM (inactive). The GI50 (TK-10) was > 100 µM (inactive), the GI50 (LXFL 529) was 64.3 µM (inactive) and the GI50 (HL-60) was 11.8 µM (inactive). The GI50 (OVCAR-5) was > 100 µM (inactive), the GI50 (SNB-78) was > 100 µM (inactive) and the GI50 (U-251) was 78.3 µM (inactive). For the same molecule, the GI50 (K562) was 35.2 µM (inactive), the GI50 (UO-31) was 38 µM (inactive) and the GI50 (COLO 205) was > 100 µM (inactive). For the same molecule, the GI50 (HCT-116) was 28.6 µM (inactive), the GI50 (A549) was 27.5 µM (inactive) and the GI50 (NCI-H23) was 64.1 µM (inactive). The GI50 (MOLT-4) was 38.2 µM (inactive), the GI50 (SN12C) was 91.8 µM (inactive) and the GI50 (OVCAR-8) was 54.5 µM (inactive). For the same molecule, the GI50 (SF-539) was 34.6 µM (inactive), the GI50 (SW-620) was > 100 µM (inactive) and the GI50 (RXF 393) was 20.2 µM (inactive). The GI50 (ACHN) was 40 µM (inactive), the GI50 (LOX IMVI) was 50.1 µM (inactive) and the GI50 (HOP-18) was > 100 µM (inactive). For the same molecule, the GI50 (SK-MEL-28) was > 100 µM (inactive), the GI50 (Malme-3M) was 16.4 µM (inactive) and the GI50 (IGROV-1) was 72.8 µM (inactive). The GI50 (SNB-75) was 24.6 µM (inactive), the GI50 (M14) was > 100 µM (inactive) and the GI50 (DLD-1) was > 100 µM (inactive). The GI50 (786-0) was 42.4 µM (inactive), the GI50 (UACC-62) was 44.9 µM (inactive) and the GI50 (UACC-257) was 34.9 µM (inactive). The GI50 (NCI-H522) was 17 µM (inactive), the GI50 (HOP-62) was 42 µM (inactive) and the GI50 (NCI-H460) was 36.9 µM (inactive). For the same molecule, the GI50 (SF-295) was 28.8 µM (inactive), the GI50 (CCRF-CEM) was > 100 µM (inactive) and the GI50 (OVCAR-4) was 36.7 µM (inactive). The GI50 (CAKI-1) was 34.2 µM (inactive), the GI50 (HCC 2998) was > 100 µM (inactive) and the GI50 (KM12) was > 100 µM (inactive). The GI50 (SK-MEL-5) was 31.8 µM (inactive), the GI50 (SR) was 43.7 µM (inactive) and the GI50 (DMS-273) was 29.9 µM (inactive). The GI50 (OVCAR-3) was > 100 µM (inactive), the GI50 (HT-29) was 40.3 µM (inactive) and the GI50 (SNB-19) was 58.3 µM (inactive). The GI50 (M19-MEL) was > 100 µM (inactive) and the GI50 (XF498) was 31.3 µM (inactive).
